# Publication PMC5056344, “Highly Efficient and Stable Novel NanoBiohybrid Catalyst to Avert 3,4-Dihydroxybenzoic Acid Pollutant in Water” (Scientific Reports, 2016)
# Test system: T1, protocatechuate 3,4-dioxygenase (3,4-POD)
# T1 construct: gene pcaG; 700 kDa; (alpha-beta)n, n = 2-12, non-heme Fe(III); free enzyme
# Assay: disappearance of […],4-DHBA at […] nm; non-linear Michaelis-Menten fit
# Format: biochemical, Pseudomonas sp.
# Settings: free enzyme; 50 mM CHES, pH 9.0, 55 °C; 3,4-DHBA 1–200 μM
smiles,measurement,value
"O=C(O)c1ccc(O)c(O)c1 [3,4-dihydroxybenzoic acid]",Km,37 ± 15 µM
